Where “and” joins values, the source holds several entries; their conditions need not be identical. Identical values can stand only once.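 96-well plates; 48 h exposure; 5 concentrations. Endpoints by linear interpolation between flanking doses. Not reached: highest tested concentration assigned. GI50 marks 50% less growth. At the TGI there is no net growth.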 Bounds are passed on as bounds.

Test in all cases: NCI anticancer screen, dose series, 48 h
The subject of experiment [1] is HCT-116 colon.
The test system of experiment [2] is HT29 colon.
Experiment [3] deals with K-562 leukemia.
Experiment [4] concerns KM12 colon.
In experiment [5] the test system is NCI-H460 lung.
The test system of experiment [6] is PC-3 prostate.
The subject of experiment [7] is SF-268 CNS.
Experiment [8] relates to SN12C renal.
For experiment [9], the system named is SNB-19 CNS.
Experiment [10] has as its system UO-31 renal.

Consider `Nc1nc(N)nc(CCCc2nc(N)nc(N)n2)n1`, for which the TGI in experiment [1], in experiment [2], in experiment [3], in [4], in experiment [5] and in experiment [6] was over 100 µM throughout. In addition, the TGI in [7], in experiment [8], in experiment [9] and in [10] was over 100 µM each time.

Take `O=c1oc2ccc(Br)cc2c(=O)n1-c1ccc(F)cc1F`: the GI50 in experiment [1] is 2.48 µM; in experiment [2], 3.45 µM; in [3] it was 2.4 µM; in [4] it was 2.75 µM; in [5] it was 2.79 µM; in [6], 2.85 µM. The GI50 was 2.62 µM in [7], 2 µM in [8], 2.3 µM in [9] and 1.28 µM in [10]. Also, the TGI is 8.37 µM in experiment [1]; 27.8 µM in [2]; over 100 µM in [3]; 8.49 µM in experiment [4]; 25.6 µM in [5]; 12.7 µM in experiment [6]. In addition, the TGI in experiment [7] is 21.8 µM; in experiment [8], 8.61 µM; in [9], over 100 µM; in [10], 5.93 µM.

Turning to `CN1CCN(c2ccc(Nc3ncc4cc(C#N)c(=O)n(C5CCCC5)c4n3)cc2)CC1`, the GI50 in experiment [1] is 0.587 µM; in experiment [2] it was 0.6 µM; in [3], 1.25 µM; in experiment [4] it was 1.52 µM; in experiment [5] it was 0.64 µM; in experiment [6], 0.611 µM. The GI50 in experiment [7] was 1.48 µM; in experiment [8] it was 0.917 µM; in experiment [9], 1.77 µM; in [10], 0.218 µM. Further, the TGI in experiment [1] was over 100 µM; in experiment [2] it was over 100 µM; in experiment [3], over 100 µM; in experiment [4], over 100 µM; in experiment [5], over 49.3 µM; in experiment [6], over 23.2 µM. Besides, the TGI in experiment [7] came out at 4.95 µM; in [8], 15.5 µM; in experiment [9] it was 18.7 µM; in experiment [10], 7.03 µM.

With `CCCCCCCCCCCCOC1C(C(CC(=O)NCCN2CCCC2)NS(=O)(=O)c2cc(Cl)cc(Cl)c2)OC2OC(C)(C)OC21` (configuration not stated), the GI50 in [1] is 1.85 µM; in experiment [2] it was 1.76 µM and 1.31 µM; in [3] it was 2.34 µM; in [4], 1.81 µM; in experiment [5] it was 1.86 µM and 1.89 µM; in experiment [6] it was 1.64 µM. Moreover, the GI50 in experiment [7] is 1.95 µM and 1.97 µM; in experiment [8], 1.76 µM; in [9], 2.2 µM and 1.37 µM; in experiment [10], 1.9 µM. The TGI in [1] is 4.78 µM; in experiment [2] it was 3.45 µM and 2.85 µM; in experiment [3] it was 4.85 µM; in experiment [4] it was 3.45 µM; in experiment [5], 3.68 µM and 3.73 µM; in experiment [6], 3.02 µM. For the same compound, the TGI in [7] was 3.96 µM and 3.84 µM; in experiment [8], 3.23 µM; in [9] it was 4.36 µM and 2.81 µM; in experiment [10], 3.44 µM.

As for `Cc1ccc(Nc2nnc(-c3ccc4c(c3)OCO4)o2)c(C)c1`, the TGI in [1], in experiment [2], in experiment [3], in experiment [4], in [5] and in [6] was over 100 µM in each case. Also, the TGI in [7], in experiment [8], in experiment [9] and in experiment [10] was over 100 µM throughout.

Consider `COc1ccc2c(Oc3ccc(NC(=O)c4c(C)n(CC(C)(C)O)n(-c5ccccc5)c4=O)nc3)ccnc2c1`, for which the GI50 was 8.55 µM in [1]; 21.6 µM in experiment [2]; 2.77 µM in experiment [3]; 2.23 µM in experiment [4]; 13.6 µM in experiment [5]; 19.5 µM in experiment [6]. For the same compound, the GI50 in experiment [7] is 16.8 µM; in experiment [8] it was 4.94 µM; in experiment [9], 46.4 µM; in [10] it was 4.41 µM. Besides, the TGI in [1] was over 64.3 µM; in experiment [2], over 91.1 µM; in experiment [3], 20 µM; in [4], over 100 µM; in experiment [5] it was over 100 µM; in experiment [6] it was over 95.6 µM. In addition, the TGI in experiment [7], in experiment [8], in [9] and in [10] was over 100 µM in each case.

`O=c1[nH]c(=O)n([C@H]2CCCO2)cc1F`: the GI50 in [1] is 1020 µM; in [2], 1370 µM; in experiment [3], 2770 µM; in [4], 1320 µM; in [5] it was 291 µM; in [7], 3000 µM. For the same compound, in [8], the GI50 is 1910 µM. Also, the TGI in [1] is over 5000 µM; in experiment [2] it was over 5000 µM; in [3], over 5000 µM; in experiment [4] it was over 5000 µM; in [5], 830 µM and > 3640 µM; in experiment [6] it was over 5000 µM. Moreover, the TGI in experiment [7], in [8], in [9] and in experiment [10] was over 5000 µM each time.

For the compound `O=C(NO)c1ccc(CN(c2cnccn2)c2cnccn2)cc1`, the GI50 in experiment [1] is 6.04 µM; in [2], 15.4 µM; in [3], 13 µM; in [4] it was 10.3 µM; in experiment [5], 14.8 µM; in experiment [6], 11.7 µM. For the same compound, the GI50 in experiment [7] was 16.3 µM; in [8], 18.3 µM; in experiment [9] it was 17.7 µM; in experiment [10], 12.9 µM. For the same compound, the TGI was 28.9 µM in [1]; 38 µM in [2]; over 100 µM in experiment [3]; 24.2 µM in experiment [4]; 43.6 µM in experiment [5]; 31.4 µM in [6]. Further, the TGI in experiment [7] came to 32.7 µM; in experiment [8] it was 42.5 µM; in experiment [9] it was 72.5 µM; in experiment [10], 26.4 µM.

Source of the values: PubChem BioAssay (NCI).
